Like-named read-outs stand apart in the source and are kept apart here.
Legend:
[1] = Safety assessments: adverse events (NCI-CTCAE v4.03), laboratory abnormalities; format: in vivo, human; settings: of 26 treated patients, in combination
Method: Safety was assessed by the evaluation of AEs, DLTs, changes in vital signs, ECOG PS, physical examinations,12-lead electrocardiograms, determination of LVEF, ophthalmological examinations and clinical laboratory tests (including haematology, coagulation, blood chemistry and urinalysis).

[2] = Pharmacokinetics of SAR405838 (whole-blood concentrations) in combination; format: in vivo, human; settings: SAR405838 and pimasertib administered in combination
Text: (§1) Blood samples were collected on Days 1 (for pimasertib only), 2, 3, 8 and 15 of Cycle 1, on Days 1 and 2 of Cycle 2, and on Day 1 of Cycles 3 and 4, to determine the whole-blood and plasma concentrations of SAR405838 and pimasertib, respectively.

[3] = Pharmacokinetics of pimasertib (plasma concentrations) in combination; format: in vivo, human; settings: for AUC(0-t) / Cmax / half-life / Tmax: human, plasma, oral; for AUC(0-t): read-out: Pimasertib AUC0–12, mean ± SD; for Cmax: read-out: Pimasertib Cmax, mean ± SD; for half-life: read-out: Pimasertib t1/2 (converted); for Tmax: read-out: Pimasertib tmax, median (range)
Text: as §1

pERK = pERK levels in PMA-stimulated PBMCs by flow cytometry; format: in vivo, human
Method: MIC-1 protein concentrations were measured in plasma samples using an analytically validated enzyme-linked immunosorbent assay (Quantikine® Human GDF-15 immunoassay). pERK levels were determined by evaluating median value changes in response to ex vivo stimulation with or without phorbol myristate acetate (PMA) over time in whole-blood samples (CD 45^+ and lymphocyte populations) by flow cytometry (BD FACSCanto™ II instrument). Stimulated pERK levels were calculated as percentage (PMA-dimethylsulphoxide [DMSO])/DMSO).

[4] = parameters: method as in doi:10.1016/S0959-8049(12)72401-2; settings: cited from earlier work
[5] = DL1 SAR405838 200 mg QD + pimasertib 45 mg BID, C1D2
[6] = DL1 SAR405838 200 mg QD + pimasertib 45 mg BID, C2D1
[7] = DL2a SAR405838 200 mg QD + pimasertib 60 mg QD, C1D1
[8] = DL2a SAR405838 200 mg QD + pimasertib 60 mg QD, C1D2
[9] = DL2b SAR405838 300 mg QD + pimasertib 45 mg BID, C1D1
[10] = DL2b SAR405838 300 mg QD + pimasertib 45 mg BID, C1D2
[11] = DL2b SAR405838 300 mg QD + pimasertib 45 mg BID, C2D1
[12] = DL3a SAR405838 300 mg QD + pimasertib 60 mg QD, C1D1
[13] = DL3a SAR405838 300 mg QD + pimasertib 60 mg QD, C1D2
[14] = DL3a SAR405838 300 mg QD + pimasertib 60 mg QD, C2D1
[15] = DL1 SAR405838 200 mg QD + pimasertib 45 mg BID, C1D1
[16] = DL2a SAR405838 200 mg QD + pimasertib 60 mg QD, C2D1

## O=C(NC[C@H](O)CO)c1ccncc1Nc1ccc(I)cc1F [pimasertib]
[1]
  Patients with dose modification, reduction or omission: 18 patients
[2]
  PK in combination compared with PK as monotherapy: similar
[3]; [5]
  Pimasertib tmax, median (range): 1.5 [0.5–2] (7) h
  AUC(0-t): 689 ± 324 ng·h/mL
  Cmax: 200 ± 102 ng/mL
[3]; [6]
  Pimasertib tmax, median (range): 1.5 [0.5–1.5] (6) h
  AUC(0-t): 862 ± 350 ng·h/mL
  Cmax: 226 ± 70.6 ng/mL
[3]; [7]
  Pimasertib AUC0–12, mean ± SD: 1120 ± 410 (4; 37) ng.h/mL
  Pimasertib tmax, median (range): 1.5 [0.5–1.5] (4) h
  Cmax: 301 ± 69.9 ng/mL
  half-life: 5.38 ± 0.276 h
[3]; [8]
  Pimasertib AUC0–12, mean ± SD: 1130 ± 422 (4; 37) ng.h/mL
  Cmax: 303 ± 134 ng/mL
  Tmax: 1 h
[3]; [9]
  Pimasertib tmax, median (range): 1.5 [0.5–1.5] (7) h
  AUC(0-t): 779 ± 594 ng·h/mL
  Cmax: 184 ± 109 ng/mL
  half-life: 4.71 ± 1.39 h
[3]; [10]
  Pimasertib tmax, median (range): 1.5 [1.5–2] (7) h
  AUC(0-t): 684 ± 367 ng·h/mL
  Cmax: 182 ± 110 ng/mL
[3]; [11]
  Pimasertib tmax, median (range): 1.5 [0.5–2] (6) h
  AUC(0-t): 532 ± 166 ng·h/mL
  Cmax: 147 ± 93.8 ng/mL
[3]; [12]
  Pimasertib t1/2: 5.25 ± 1.83 (7; 35) h
  AUC(0-t): 935 ± 469 ng·h/mL
  Cmax: 221 ± 98.3 ng/mL
  Tmax: 1 h
[3]; [13]
  Pimasertib tmax, median (range): 1.5 [0.5-2] (7) h
  AUC(0-t): 917 ± 390 ng·h/mL
  Cmax: 200 ± 84.4 ng/mL
[3]; [14]
  Pimasertib tmax, median (range): 1.5 [0.5–1.5] (5) h
  AUC(0-t): 765 ± 314 ng·h/mL
  Cmax: 243 ± 65.4 ng/mL
[3]; between DL1/DL2b (pimasertib 45 mg BID) and DL2a/DL3a (pimasertib 60 mg BID)
  Exposure change with dose increase (33%): resulted in pimasertib exposure increase
[3]; [15]
  AUC(0-t): 755 ± 382 ng·h/mL
  Cmax: 218 ± 108 ng/mL
  half-life: 4.76 ± 1.17 h
  Tmax: 0.5 h
[3]; [16]
  AUC(0-t): 1040 ± 504 ng·h/mL
  Cmax: 269 ± 134 ng/mL
pERK
  Time pERK inhibition was maintained: 4 h
pERK; C1D1, C1D2 and C2D1, at or around tmax of pimasertib, at most DLs
  pERK inhibition: ≥ 80%
[4]; BID
  Recommended phase II dose, monotherapy: 60 mg
[4]; once daily
  MTD, monotherapy, QD regimen: 90 mg
[4]; phase I dose-escalation trial
  DLTs, monotherapy: skin rash, acneiform dermatitis, ocular events and stomatitis
[4]; twice daily
  MTD, monotherapy, BID regimen: 60 mg

Reference: PMC6354023, “A phase I study of the HDM2 antagonist SAR405838 combined with the MEK inhibitor pimasertib in patients with advanced solid tumours” (British Journal of Cancer, 2018)
